Reference: patent publication US6867320B2, “Substituted phenylalkanoic acid derivatives and use thereof” (Asahi Kasei Pharma Corporation, priority 2002, dated 2005)

Key:
[1] = tested on: zymosan-stimulated footpad edema; assay: Mouse zymosan-stimulated footpad edema reaction; assay type: in vivo; conditions: ICR female mice, oral 0.1 to 500 mg/kg, compared with positive control group
Description: 3. Suppressing Effect on Mouse Zymosan-stimulated Footpad Edema Reaction A suppressing effect on footpad edema caused by zymosan as an inflammatory stimulant was studied by the following method. Groups of ICR female mice (6- to 7-week old) each consisting of eight mice were used for the test. A test compound was suspended or dissolved in purified water containing 0.5% methylcellulose and orally administered to the test animals at 0.1 to 500 mg/0.2 ml/kg. To the control group, purified water containing 0.5% methylcellulose was administered in a similar manner, which was not added with a test compound. One hour after the administration of the test compound, 0.02 ml of a suspension of zymosan suspended in physiological saline (Otsuka Pharmaceutical) at 1 mg/ml was subcutaneously administered to right hind leg footpad of each mouse. One and two hours after the administration of the zymosan suspension, volume of the right hind leg footpad was measured by using an apparatus for measuring a volume of mouse hind leg footpad edema (Unicom). A difference of the volume of footpad measured above and the footpad volume before the administration of the test compound measured beforehand was regarded as a volume of the edema. For the volume of the edema at 1 hour or 2 hours after the zymosan administration, a graph was prepared by indicating time in abscissa and the edema volume in ordinate, and an edema volume AUC (area under the curve) was obtained up to 2 hours by calculation using the following equation. Edema volume AUC (1·hour)=1/2×1×A+1×(A+B)/2 • A: Edema volume 1 hour after zymosan administration • B: Edema volume 2 hour after zymosan administration A suppression ratio on edema of test compound was obtained by calculation using the following equation. Edema suppression ratio (%)=[1−B/A]×100 • A: Edema volume AUC of positive control • B: Edema volume AUC of test compound administered group (2) Measurement Results

[2] = tested on: PGD2 production from IgE-stimulated RBL-2H3 cells; assay: Suppressing action on PGD2 production from IgE-stimulated RBL-2H3 cells; assay type: cell-based; conditions: Rattus norvegicus, 10 min, IgE/DNP-BSA stimulated RBL-2H3 cells, read-out: PGD2 production suppression ratio
Source text: (§1) 2. Suppressing Action on PGD2 and LTB4 Production from IgE-Stimulated RBL-2H3 Cells
(§2) Suppressing action on PGD2 and LTB4 production caused by IgE as an allergic stimulant was investigated by the following method. Cells of RBL-2H3, which is a rat mastocytoma cell line (purchased from ATCC), were suspended in DEMEM medium (GIBCO) containing 10% fetal bovine serum (BioFluid), inoculated to each well of 48-well culture plate at a density of 2×10^4 cells/well and cultured overnight. Then, IgE antiserum directed to dinitrophenylated BSA (henceforth DNP-BSA) was further added to each well, and the cells were cultured for 30 minutes. Then, the medium was changed to DEMEM medium containing 0.5% fetal bovine serum, a test compound was added with each well, and DNP-BSA was further added at a final concentration of 100 ng/ml as a stimulant. Ten minutes after the stimulant was added, the culture supernatant was collected, and the PGD2 concentration and LTB4 concentration in the culture supernatant were measured by using EIA kit (CAYMAN). By using a well which was not added with the stimulant as a negative control and a well which was added only with the stimulant as a positive control, suppressing ratios on mediator production were calculated from the production amounts of the mediators in the well added with the test compound using the following equation. PGD2 or LTB4 production suppression ratio=[1−(C−B)/(A−B)]×100 • A: PGD2 or LTB4 production amount of positive control • B: PGD2 or LTB4 production amount of negative control • C: PGD2 or LTB4 production amount in well added with test compound
(§3) Further, as control compounds for comparison, reference compound (1), 3-(2-cyclohexylmethyloxy-1,1′-biphenyl-5-yl)propionic acid described in WO99/19291, reference compounds (2) and (3), [2-(5,6,7,8-tetrahydro-5,5,8,8-tetramethyl-2-naphthalenyl)methyloxy-1,1′-biphenyl-5-yl]carboxylic acid [reference compound (2)] and 3-[3′-carboxy-2-(5,6,7,8-tetrahydro-5,5,8,8-tetramethyl-2naphthalenyl)methyloxy-1,1′-biphenyl-6-yl]propionic acid [reference compound (3)] described in U.S. Pat. No. 5,391,817 and Japanese Patent Unexamined Publication (Kokai) No. 7-22399, respectively, were used, and activities thereof were similarly measured.

[3] = tested on: LTB4 production from IgE-stimulated RBL-2H3 cells; assay: Suppressing action on LTB4 production from IgE-stimulated RBL-2H3 cells; assay type: cell-based; conditions: Rattus norvegicus, 10 min, IgE/DNP-BSA stimulated RBL-2H3 cells, read-out: LTB4 production suppression ratio
Source text: as §1, §2, §3

[4] = tested on: PGE2 production from IL-1β-stimulated MG-63 cells; assay: Suppressing action on PGE2 production from IL-1β-stimulated MG-63 cells; assay type: cell-based; conditions: Homo sapiens, IL-1β 1 ng/ml, 18 hours, read-out: PGE2 production suppression ratio
Summary of the method: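 Human osteosarcoma MG-63 cells (2×10^4/well) switched to 0.5% FBS medium, treated with compound, then stimulated with IL-1β at 1 ng/ml final for 18 h. Supernatant PGE2 measured by EIA; suppression ratio calculated against stimulated and unstimulated wells.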

Row | Compound | suppression of footpad edema caused by zymosan [1] | inhibition at 0.4 µM [2] | inhibition at 0.4 µM [3] | inhibition at 0.4 µM [4]
1 | O=C(O)CCc1ccc(OCc2ccccc2Cl)c(-c2ccc3[nH]ccc3c2)c1 [Compound 148, 3-[4-(2-chlorophenylmethyloxy)-3-(1H-indol-5-yl)phenyl]propionic acid] | suppressed footpad edema | ≥ 50% | ≥ 50% | ≥ 50%
2 | COC(=O)CCc1ccc(OCC2CCCC2)c(-c2ccc3[nH]ccc3c2)c1 [Compound 099, methyl 3-[4-cyclopentylmethyloxy-3-(1H-indol-5-yl)phenyl]propionate] | suppressed footpad edema | ≥ 50% | ≥ 50% | ≥ 50%
3 | Nc1cc(CCC(=O)O)cc(-c2ccc3ccccc3c2)c1OCC1CCCC1 [Compound 095, 3-[3-amino-4-cyclopentylmethyloxy-5-(naphthalen-2-yl)phenyl]propionic acid] | suppressed footpad edema | ≥ 50% | ≥ 50% | ≥ 50%
4 | O=C(O)CCc1ccc(OCC2CCCC2)c(-c2ccc3cc(O)ccc3c2)c1 [Compound 004, 3-[4-cyclopentylmethyloxy-3-(6-hydroxynaphthalen-2-yl)phenyl]propionic acid] | suppressed footpad edema | ≥ 50% | ≥ 50% | ≥ 50%
5 | Cc1ccc(CCOc2ccc(CCC(=O)O)cc2-c2ccc3[nH]ccc3c2)cc1 [Compound 204, 3-{3-(1H-indol-5-yl)-4-[2-(4-methylphenyl)ethyloxy]phenyl}propionic acid] | suppressed footpad edema | ≥ 50% | ≥ 50% | ≥ 50%
6 | Cn1ccc2cc(-c3cc(CCC(=O)O)ccc3OC3CCCCC3)ccc21 [Compound 110, 3-[4-cyclohexyloxy-3-(1-methyl-1H-indol-5-yl)phenyl]propionic acid] | suppressed footpad edema | ≥ 50% | ≥ 50% | ≥ 50%
7 | CCn1ccc2cc(-c3cc(CCC(=O)O)ccc3OC3CCCC3)ccc21 [Compound 246, 3-[4-cyclopentyloxy-3-(1-ethyl-1H-indol-5-yl)phenyl]propionic acid] | suppressed footpad edema | ≥ 50% | ≥ 50% | ≥ 50%
8 | O=C(O)CCc1ccc(OCc2ccccc2F)c(-c2ccc3[nH]ccc3c2)c1 [Compound 142, 3-[4-(2-fluorophenylmethyloxy)-3-(1H-indol-5-yl)phenyl]propionic acid] | suppressed footpad edema | ≥ 50% | ≥ 50% | ≥ 50%
9 | CCCCOc1ccc(COc2ccc(CCC(=O)OC)cc2-c2ccc3[nH]ccc3c2)cc1 [Compound 185, methyl 3-{4-[4-(butyloxy)phenylmethyloxy]-3-(1H-indol-5-yl)-phenyl}propionate] | suppressed footpad edema | ≥ 50% | ≥ 50% | 
10 | O=C(O)CCc1ccc(OCc2ccc(Cl)cc2)c(-c2ccc3[nH]ccc3c2)c1 [Compound 152, 3-[4-(4-chlorophenylmethyloxy)-3-(1H-indol-5-yl)phenyl]propionic acid] | suppressed footpad edema | ≥ 50% | ≥ 50% | ≥ 50%
11 | O=C(O)CCc1ccc(OCc2ccccc2Br)c(-c2ccc3[nH]ccc3c2)c1 [Compound 154, 3-[4-(2-bromophenylmethyloxy)-3-(1H-indol-5-yl)phenyl]propionic acid] | suppressed footpad edema | ≥ 50% | ≥ 50% | ≥ 50%
